# Assay results reported in ChEMBL document CHEMBL3804798, “Design, synthesis and anti-inflammatory effects of novel 9-O-substituted-berberine derivatives” (Medchemcomm, 2016).
# Calls of active or inactive are those of the source. The calls are words filed in the database; no cut-off is given here.
# What was measured:
# [1] = Cytotoxicity against mouse RAW264.7 cells assessed as cell viability at 10 uM after 48 hrs by MTT assay relative to control; type: cell-based; conditions: read-out: Activity
# [2] = Cytotoxicity against mouse RAW264.7 cells assessed as cell viability at 5 uM after 48 hrs by MTT assay relative to control; type: cell-based; conditions: read-out: Activity
# RAW264.7 [3] = experiment: Inhibition of LPS stimulated iNOS expression in mouse RAW264.7 cells preincubated for 2 hrs followed by LPS stimulation for 6 hrs by Western blot analysis; type: functional, cell-based
# RAW264.7 [4] = experiment: Antiinflammatory activity against mouse RAW264.7 cells assessed as inhibition of LPS-induced NO release at 5 uM after 24 hrs by Griess assay relative to control; type: functional; conditions: RAW264.7, 24 h
# RAW264.7 [5] = experiment: Antiinflammatory activity against mouse LPS-induced RAW264.7 cells assessed as inhibition of TNFalpha production at 5 uM after 24 hrs by cytokine enzyme-linked immunosorbent assay relative to control; type: functional; conditions: RAW264.7, 24 h
# RAW264.7 [6] = experiment: Antiinflammatory activity against mouse LPS-induced RAW264.7 cells assessed as inhibition of IL-6 production at 5 uM after 24 hrs by cytokine enzyme-linked immunosorbent assay relative to control; type: functional, cell-based
# RAW264.7 [7] = experiment: Antiinflammatory activity against mouse RAW264.7 cells assessed as inhibition of LPS-induced NO release after 24 hrs by Griess assay relative to control; type: functional, cell-based
# Danio rerio [8] = species: Danio rerio; experiment: Antiinflammatory activity in cut-tail neutrophil/macrophage double transgenic zebra fish larvae assessed as cut-tail-induced reduction in neutrophil level in wound site at 10 uM after 3 to 9 hrs by fluorescence microscopic analysis relative to control; type: functional, organism-based
# Danio rerio [9] = species: Danio rerio; experiment: Antiinflammatory activity in cut-tail neutrophil/macrophage double transgenic zebra fish larvae assessed as cut-tail-induced migration of primitive macrophages at 10 uM after 3 to 6 hrs by fluorescence microscopic analysis relative to control; type: functional, organism-based
# Danio rerio [10] = species: Danio rerio; experiment: Antiinflammatory activity in cut-tail neutrophil/macrophage double transgenic zebra fish larvae assessed as cut-tail-induced reduction in migration of primitive macrophages at 10 uM after 9 hrs by fluorescence microscopic analysis relative to control; type: functional, organism-based
# [11] = target: T1, NF-kappa-B inhibitor alpha (Mus musculus) (UniProt Q9Z1E3); experiment: Inhibition of LPS stimulated IkappaBaplha phosphorylation in mouse RAW264.7 cells preincubated for 2 hrs followed by LPS stimulation for 6 hrs by Western blot analysis; type: cell-based
# T1 sequence (whole entry): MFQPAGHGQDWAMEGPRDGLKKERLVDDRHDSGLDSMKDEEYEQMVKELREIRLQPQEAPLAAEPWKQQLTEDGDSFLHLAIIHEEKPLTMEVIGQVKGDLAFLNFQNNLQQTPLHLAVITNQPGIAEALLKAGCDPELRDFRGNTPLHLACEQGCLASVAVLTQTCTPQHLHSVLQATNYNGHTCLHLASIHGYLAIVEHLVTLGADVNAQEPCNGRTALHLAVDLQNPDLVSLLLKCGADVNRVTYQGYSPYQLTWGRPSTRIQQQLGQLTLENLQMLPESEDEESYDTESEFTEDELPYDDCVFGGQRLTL
SMILES,"viability at 48 h, 10 µM [1] [%]","viability at 48 h, 5 µM [2] [%]",inhibition at 5 µM (RAW264.7 [4]) [%],also measured
COc1ccc2cc3[n+](cc2c1OC(=O)N1CCOCC1)CCc1cc2c(cc1-3)OCO2,96,105,,
COc1ccc2cc3[n+](cc2c1OC(=O)N1CCC(Cc2ccccc2)CC1)CCc1cc2c(cc1-3)OCO2,87.9,97.6,,
COc1ccc2cc3[n+](cc2c1OC(=O)N1CCSCC1)CCc1cc2c(cc1-3)OCO2,109,96,,
C=CCN(CC=C)C(=O)Oc1c(OC)ccc2cc3[n+](cc12)CCc1cc2c(cc1-3)OCO2,92.2,100,,
COc1ccc2cc3[n+](cc2c1OCCCN1CCN(c2ccncc2)CC1)CCc1cc2c(cc1-3)OCO2,100,103,30.2,inhibition (RAW264.7 [3]): Dose-dependent effect; inhibition at 5 µM (RAW264.7 [5]): 90%; inhibition (RAW264.7 [6]): Active; inhibition (RAW264.7 [7]): Dose-dependent effect; Activity (Danio rerio [8]): Active; Activity (Danio rerio [9]): inactive; Activity (Danio rerio [10]): Active; inhibition [11]: Dose-dependent effect
CCOC(=O)N1CCN(CCCOc2c(OC)ccc3cc4[n+](cc23)CCc2cc3c(cc2-4)OCO3)CC1,99.1,103,,
COc1ccc2cc3[n+](cc2c1OC(=O)N1CCC(N2CCN(C)CC2)CC1)CCc1cc2c(cc1-3)OCO2,104,101,,
CCOC(=O)N1CCN(C(=O)Oc2c(OC)ccc3cc4[n+](cc23)CCc2cc3c(cc2-4)OCO3)CC1,99.6,97.9,9.7,
CCCN(CCC)C(=O)Oc1c(OC)ccc2cc3[n+](cc12)CCc1cc2c(cc1-3)OCO2,93.9,101,,
COc1ccc2cc3[n+](cc2c1OC(=O)N1CCC(N2CCCCC2)CC1)CCc1cc2c(cc1-3)OCO2,100,98.1,,
COc1ccc2cc3[n+](cc2c1OC(=O)N1CCN(C2CCN(C)CC2)CC1)CCc1cc2c(cc1-3)OCO2,102,107,,
COc1ccc2cc3[n+](cc2c1OC(=O)N1CCN(c2ccccn2)CC1)CCc1cc2c(cc1-3)OCO2,109,103,12.9,
CCOC(=O)C1CCN(CCCOc2c(OC)ccc3cc4[n+](cc23)CCc2cc3c(cc2-4)OCO3)CC1,99.5,98.5,,
COc1ccc2cc3[n+](cc2c1OC)CCc1cc2c(cc1-3)OCO2 [BERBERINE CHLORIDE],97.2,99.4,21.1,
COc1ccc2cc3[n+](cc2c1OC(=O)N1CCN(c2ncccn2)CC1)CCc1cc2c(cc1-3)OCO2,97.6,102,,
COc1ccc2cc3[n+](cc2c1OC(=O)N(C)C1CCCCC1)CCc1cc2c(cc1-3)OCO2,83.2,99.3,70.3,inhibition (RAW264.7 [3]): Dose-dependent effect; inhibition at 5 µM (RAW264.7 [5]): 70%; inhibition (RAW264.7 [6]): Active; inhibition (RAW264.7 [7]): Dose-dependent effect; Activity (Danio rerio [8]): Active; Activity (Danio rerio [9]): inactive; Activity (Danio rerio [10]): Active; inhibition [11]: Dose-dependent effect
COc1ccc2c(c1)c(CC(=O)O)c(C)n2C(=O)c1ccc(Cl)cc1 [INDOMETHACIN],99.6,99.8,20.8,
